Converted amounts (≈) assume the structure as drawn.

Format in all cases: functional
Assay [1] has as its system Staphylococcus aureus. Nature of the assay: Potency index, ratio of MIC for norfloxacin to MIC for compound against multidrug-resistant Staphylococcus aureus CCARM 3506 incubated for 24 hrs serial dilution method.
Assay [2] has as its system Staphylococcus aureus. In words: Antibacterial activity against multidrug-resistant Staphylococcus aureus CCARM 3506 incubated for 24 hrs serial dilution method. As to conditions: CCARM 3506, 24 h.
For assay [3], the system named is Staphylococcus aureus. In words: Antibacterial activity against quinolone-resistant Staphylococcus aureus CCARM 3519 incubated for 24 hrs serial dilution method. To be noted: CCARM 3519, 24 h.
For assay [4], the system named is Staphylococcus aureus. Nature of the assay: Potency index, ratio of MIC for norfloxacin to MIC for compound against multidrug-resistant Staphylococcus aureus CCARM 3167 incubated for 24 hrs serial dilution method.
The subject of assay [5] is Staphylococcus aureus. Nature of the assay: Antibacterial activity against multidrug-resistant Staphylococcus aureus CCARM 3167 incubated for 24 hrs serial dilution method. To be noted: CCARM 3167, 24 h.
The test system of assay [6] is Staphylococcus aureus. Nature of the assay: Antibacterial activity against quinolone-resistant Staphylococcus aureus CCARM 3505 incubated for 24 hrs serial dilution method. As to conditions: CCARM 3505, 24 h.
Assay [7] relates to Staphylococcus aureus. Nature of the assay: Antibacterial activity against Staphylococcus aureus KCTC 503 incubated for 24 hrs serial dilution method. As to conditions: KCTC 503, 24 h.
The test system of assay [8] is Escherichia coli. In words: Antibacterial activity against Escherichia coli 1356 incubated for 24 hrs serial dilution method. To be noted: Escherichia coli, 1356, 24 h.
Assay [9] relates to Staphylococcus aureus. Nature of the assay: Antibacterial activity against Staphylococcus aureus RN 4220 incubated for 24 hrs serial dilution method. To be noted: RN 4220, 24 h.
The subject of assay [10] is Staphylococcus aureus. Nature of the assay: Antibacterial activity against Staphylococcus aureus KCTC 209 incubated for 24 hrs serial dilution method. As to conditions: KCTC 209, 24 h.
Assay [11] relates to Staphylococcus aureus. In words: Potency index, ratio of MIC for norfloxacin to MIC for compound against quinolone-resistant Staphylococcus aureus CCARM 3505 incubated for 24 hrs serial dilution method.
The subject of assay [12] is Staphylococcus aureus. In words: Potency index, ratio of MIC for norfloxacin to MIC for compound against quinolone-resistant Staphylococcus aureus CCARM 3519 incubated for 24 hrs serial dilution method.

For `Cc1nn(-c2ccccc2)c(Oc2c(Cl)cccc2Cl)c1/C=C1\SC(=S)N([C@@H](Cc2ccccc2)C(=O)O)C1=O`, the Ratio in assay [1] is reported as 2; in assay [4], 2; in [11], 4; in assay [12], 4. Moreover, the MIC in assay [2] was 8 µg/mL (≈ 13.1 µM); in assay [3], 8 µg/mL (≈ 13.1 µM); in [5], 4 µg/mL (≈ 6.55 µM); in [6] it was 8 µg/mL (≈ 13.1 µM); in [7], above 64 µg/mL; in assay [8], above 64 µg/mL. In addition, the minimum inhibitory concentration (MIC) in assay [9] was 4 µg/mL (≈ 6.55 µM); in assay [10] it was above 64 µg/mL.

For the compound `Cc1nn(-c2ccccc2)c(Oc2ccccc2Cl)c1/C=C1\SC(=S)N([C@@H](Cc2ccccc2)C(=O)O)C1=O`, the Ratio was determined as 2 in assay [1], 2 in assay [4], 4 in [11] and 4 in assay [12]. The MIC was 8 µg/mL (≈ 13.9 µM) in assay [2]; 8 µg/mL (≈ 13.9 µM) in assay [3]; 8 µg/mL (≈ 13.9 µM) in assay [5]; 8 µg/mL (≈ 13.9 µM) in [6]; above 64 µg/mL in assay [7]; above 64 µg/mL in [8]. Also, the MIC in assay [9] was 8 µg/mL (≈ 13.9 µM); in assay [10], above 64 µg/mL.

Turning to `Cc1cccc(Oc2c(/C=C3\SC(=S)N([C@@H](Cc4ccccc4)C(=O)O)C3=O)c(C)nn2-c2ccccc2)c1`, the Ratio in [1] was determined as 2; in [4], 2; in assay [11], 4; in assay [12], 4. Also, the MIC was 4 µg/mL (≈ 7.2 µM) in [2]; 8 µg/mL (≈ 14.4 µM) in assay [3]; 4 µg/mL (≈ 7.2 µM) in [5]; 4 µg/mL (≈ 7.2 µM) in [6]; above 64 µg/mL in assay [7]; above 64 µg/mL in assay [8]. The MIC was 4 µg/mL (≈ 7.2 µM) in assay [9] and above 64 µg/mL in [10].

With `Cc1nn(-c2ccccc2)c(Oc2ccc(F)cc2)c1/C=C1\SC(=S)N([C@@H](Cc2ccccc2)C(=O)O)C1=O`, the Ratio amounted to 2 in assay [1], 2 in assay [4], 4 in assay [11] and 4 in [12]. Also, the minimum inhibitory concentration (MIC) in [2] is 8 µg/mL (≈ 14.3 µM); in assay [3], 8 µg/mL (≈ 14.3 µM); in assay [5] it was 4 µg/mL (≈ 7.15 µM); in [6] it was 8 µg/mL (≈ 14.3 µM); in [7] it was above 64 µg/mL; in assay [8], above 64 µg/mL. The MIC in assay [9] was 8 µg/mL (≈ 14.3 µM); in assay [10] it was above 64 µg/mL.

As to `Cc1ccc(Oc2c(/C=C3\SC(=S)N([C@@H](Cc4c[nH]c5ccccc45)C(=O)O)C3=O)c(C)nn2-c2ccccc2)cc1`, the MIC in assay [2] was 2 µg/mL (≈ 3.36 µM); in assay [3] it was 4 µg/mL (≈ 6.73 µM); in assay [5], 2 µg/mL (≈ 3.36 µM); in [6], 4 µg/mL (≈ 6.73 µM); in assay [7], above 64 µg/mL; in [8], above 64 µg/mL. Moreover, the MIC is 4 µg/mL (≈ 6.73 µM) in assay [9] and above 64 µg/mL in [10].

As for `Cc1ccc(Oc2c(/C=C3\SC(=S)N([C@@H](Cc4ccc(O)cc4)C(=O)O)C3=O)c(C)nn2-c2ccccc2)c(C)c1`, the minimal inhibitory concentration (MIC) is 8 µg/mL (≈ 13.7 µM) in [2]; 8 µg/mL (≈ 13.7 µM) in assay [3]; 8 µg/mL (≈ 13.7 µM) in assay [5]; 8 µg/mL (≈ 13.7 µM) in [6]; above 64 µg/mL in [7]; above 64 µg/mL in assay [8]. The minimum inhibitory concentration (MIC) in assay [9] is 8 µg/mL (≈ 13.7 µM); in [10], above 64 µg/mL.

For `Cc1cccc(Oc2c(/C=C3\SC(=S)N([C@@H](Cc4c[nH]c5ccccc45)C(=O)O)C3=O)c(C)nn2-c2ccccc2)c1`, the MIC was 4 µg/mL (≈ 6.73 µM) in [2]; 8 µg/mL (≈ 13.5 µM) in assay [3]; 4 µg/mL (≈ 6.73 µM) in assay [5]; 8 µg/mL (≈ 13.5 µM) in assay [6]; above 64 µg/mL in assay [7]; above 64 µg/mL in assay [8]. The MIC is 4 µg/mL (≈ 6.73 µM) in [9] and above 64 µg/mL in assay [10].

Consider `Cc1nn(-c2ccccc2)c(Oc2ccccc2)c1/C=C1\SC(=S)N([C@@H](Cc2c[nH]c3ccccc23)C(=O)O)C1=O`, for which the MIC in assay [2] was 8 µg/mL (≈ 13.8 µM); in assay [3], 8 µg/mL (≈ 13.8 µM); in [5], 8 µg/mL (≈ 13.8 µM); in assay [6] it was 8 µg/mL (≈ 13.8 µM); in assay [7] it was above 64 µg/mL; in assay [8], above 64 µg/mL. The MIC is 8 µg/mL (≈ 13.8 µM) in assay [9] and above 64 µg/mL in [10].

On to `Cc1ccccc1Oc1c(/C=C2\SC(=S)N([C@@H](Cc3c[nH]c4ccccc34)C(=O)O)C2=O)c(C)nn1-c1ccccc1`, for which the MIC in [2] is 4 µg/mL (≈ 6.73 µM); in assay [3], 8 µg/mL (≈ 13.5 µM); in assay [5], 2 µg/mL (≈ 3.36 µM); in assay [6] it was 8 µg/mL (≈ 13.5 µM); in assay [7] it was above 64 µg/mL; in assay [8], above 64 µg/mL. The MIC in assay [9] was 8 µg/mL (≈ 13.5 µM); in [10], above 64 µg/mL.

With `Cc1nn(-c2ccccc2)c(Oc2ccc(F)cc2)c1/C=C1\SC(=S)N([C@@H](Cc2c[nH]c3ccccc23)C(=O)O)C1=O`, the minimum inhibitory concentration (MIC) is 4 µg/mL (≈ 6.68 µM) in [2]; 8 µg/mL (≈ 13.4 µM) in assay [3]; 4 µg/mL (≈ 6.68 µM) in assay [5]; 8 µg/mL (≈ 13.4 µM) in assay [6]; above 64 µg/mL in assay [7]; above 64 µg/mL in [8]. For the same compound, the MIC in assay [9] was 8 µg/mL (≈ 13.4 µM); in assay [10] it was above 64 µg/mL.

In the case of `Cc1nn(-c2ccccc2)c(Oc2ccc(Cl)cc2)c1/C=C1\SC(=S)N([C@@H](Cc2ccc(O)cc2)C(=O)O)C1=O`, the minimal inhibitory concentration (MIC) in assay [2] was 8 µg/mL (≈ 13.5 µM); in [3], 8 µg/mL (≈ 13.5 µM); in assay [5], 16 µg/mL (≈ 27 µM); in [6] it was 16 µg/mL (≈ 27 µM); in assay [7] it was above 64 µg/mL; in assay [8] it was above 64 µg/mL. For the same compound, the results for the MIC in [9] and in [10] were 16 µg/mL (≈ 27 µM) and above 64 µg/mL, respectively.

For `COc1ccccc1Oc1c(/C=C2\SC(=S)N([C@@H](Cc3c[nH]c4ccccc34)C(=O)O)C2=O)c(C)nn1-c1ccccc1`, the minimum inhibitory concentration (MIC) in assay [2] is 8 µg/mL (≈ 13.1 µM); in assay [3], 8 µg/mL (≈ 13.1 µM); in [5] it was 8 µg/mL (≈ 13.1 µM); in assay [6], 8 µg/mL (≈ 13.1 µM); in assay [7] it was above 64 µg/mL; in assay [8], above 64 µg/mL. For the same compound, the minimum inhibitory concentration (MIC) in assay [9] is 16 µg/mL (≈ 26.2 µM); in assay [10] it was above 64 µg/mL.

Take `Cc1ccc(Oc2c(/C=C3\SC(=S)N([C@@H](Cc4ccc(O)cc4)C(=O)O)C3=O)c(C)nn2-c2ccccc2)cc1`: the MIC is 8 µg/mL (≈ 14 µM) in assay [2]; 16 µg/mL (≈ 28 µM) in [3]; 8 µg/mL (≈ 14 µM) in assay [5]; 16 µg/mL (≈ 28 µM) in assay [6]; above 64 µg/mL in [7]; above 64 µg/mL in assay [8]. Also, the MIC is 16 µg/mL (≈ 28 µM) in assay [9] and above 64 µg/mL in assay [10].

For the compound `Cc1nn(-c2ccccc2)c(Oc2ccc3ccccc3c2)c1/C=C1\SC(=S)N([C@@H](Cc2ccc(O)cc2)C(=O)O)C1=O`, the MIC in assay [2] is 8 µg/mL (≈ 13.2 µM); in assay [3] it was 8 µg/mL (≈ 13.2 µM); in assay [5], 8 µg/mL (≈ 13.2 µM); in [6] it was 8 µg/mL (≈ 13.2 µM); in assay [7], above 64 µg/mL; in assay [8], above 64 µg/mL. For the same compound, the figures for the MIC in assay [9] and in [10] were 8 µg/mL (≈ 13.2 µM) and above 64 µg/mL, respectively.

Consider `Cc1nn(-c2ccccc2)c(Oc2c(Cl)cccc2Cl)c1/C=C1\SC(=S)N([C@@H](Cc2c[nH]c3ccccc23)C(=O)O)C1=O`, for which the MIC was 4 µg/mL (≈ 6.16 µM) in assay [2]; 4 µg/mL (≈ 6.16 µM) in assay [3]; 4 µg/mL (≈ 6.16 µM) in assay [5]; 4 µg/mL (≈ 6.16 µM) in assay [6]; above 64 µg/mL in assay [7]; above 64 µg/mL in assay [8]. Besides, the MIC in assay [9] is 4 µg/mL (≈ 6.16 µM); in [10] it was above 64 µg/mL.

In the case of `Cc1nn(-c2ccccc2)c(Oc2cccc(C(F)(F)F)c2)c1/C=C1\SC(=S)N([C@@H](Cc2c[nH]c3ccccc23)C(=O)O)C1=O`, the MIC in assay [2] was 4 µg/mL (≈ 6.17 µM); in assay [3], 8 µg/mL (≈ 12.3 µM); in assay [5] it was 4 µg/mL (≈ 6.17 µM); in assay [6], 4 µg/mL (≈ 6.17 µM); in assay [7], above 64 µg/mL; in assay [8] it was above 64 µg/mL. The figures for the minimum inhibitory concentration (MIC) in assay [9] and in assay [10] were 4 µg/mL (≈ 6.17 µM) and above 64 µg/mL, respectively.

The MIC is the lowest concentration that inhibits growth of the organism. A lower MIC goes with greater potency.
